Assay results from ChEMBL document CHEMBL3627651, “Fine tuning of agonistic/antagonistic activity for vitamin D receptor by 22-alkyl chain length of ligands: 22S-Hexyl compound unexpectedly restored agonistic activity” (Bioorg Med Chem, 2015).
The source made the active and inactive calls. The calls are words filed in the database; no cut-off is given here.

Key:
[1] = biological target: T1, Vitamin D3 receptor (Homo sapiens) (UniProt P11473); assay: Agonist activity at human VDR transfected in African green monkey COS7 cells assessed as induction of transcriptional activity at 10^-10 to 10^-5 M after 16 hrs by dual luciferase reporter gene assay; type: cell-based; conditions: COS-7
T1 sequence (whole entry): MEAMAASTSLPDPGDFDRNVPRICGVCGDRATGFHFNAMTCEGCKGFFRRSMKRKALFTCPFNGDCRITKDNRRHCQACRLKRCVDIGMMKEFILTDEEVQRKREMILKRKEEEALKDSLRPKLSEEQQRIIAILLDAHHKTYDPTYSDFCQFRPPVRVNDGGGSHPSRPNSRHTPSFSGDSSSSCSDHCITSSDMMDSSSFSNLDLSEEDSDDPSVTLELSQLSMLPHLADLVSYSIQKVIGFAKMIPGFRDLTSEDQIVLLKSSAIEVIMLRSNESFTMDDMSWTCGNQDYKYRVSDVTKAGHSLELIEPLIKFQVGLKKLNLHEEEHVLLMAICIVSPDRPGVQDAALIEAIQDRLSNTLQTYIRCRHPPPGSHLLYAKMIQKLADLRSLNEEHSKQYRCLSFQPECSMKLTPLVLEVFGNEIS

Vitamin D3 receptor = biological target: T2, Vitamin D3 receptor (Homo sapiens, UniProt P11473); assay: Displacement of [3H]-1alpha,25-dihydroxyvitamin D3 from recombinant human VDR LBD expressed in Escherichia coli BL21 (DE3) pLysS after 16 hrs
T2 sequence (P11473 whole entry): T1 sequence (whole entry)

Activity [1]: Active
IC50 (Vitamin D3 receptor): 0.21 nM
Structure (SMILES): C=C1[C@H](O)CC(=C/C=C2\CCC[C@]3(C)[C@@H]([C@H](C)[C@H](CCO)CCCCCC)CC[C@@H]23)C[C@H]1O
